# From patent publication US20240165087A1, “APPLICATION OF RILUZOLE- AND BORNEOL-CONTAINING COMPOSITION IN PREPARATION OF MEDICATION FOR TREATING CEREBROVASCULAR DISEASES” (NEURODAWN PHARMACEUTICAL CO., LTD., priority 2021, published 2024)
# pEC50, pIC50: −log10 of the molar value.
# What was measured:
# kainic acid receptors = conditions: read-out: IC50, block of kainic acid receptors; cited from earlier work
# [1] = biological target: N-methyl-D-aspartate (NMDA) receptors; conditions: read-out: IC50, noncompetitive block of NMDA receptors; cited from earlier work
# MCAO rats = assay: Rat focal cerebral ischemia-reperfusion model (MCAO), neurological deficit score and cerebral infarction area; type: in vivo; conditions: Example 6
# Text: The rat focal cerebral ischemia-reperfusion model was established by internal carotid artery suture method. The limbs (hind limbs above the knee joint and forelimbs above the wrist joint) and head of an anesthetized rat were tightened with rubber bands. The animal was fixed on an operating table in supine position, and was shaved with an animal shaver from the head to the chest, and the skin was disinfected with alcohol. The neck of the rat was cut at the midline, and the subcutaneous tissue was bluntly separated. The thin layer of fascia on the surface of the anterior triangle of the neck was separated, the lower side-lower edge of the clavicular hyoid muscle was pulled up, and the longitudinally pulsating artery parallel to this muscle can be seen. The arterial shell was opened, and the bifurcation of the right carotid artery was exposed. The right common carotid artery, external carotid artery and internal carotid artery were separated. The vagus nerve was gently stripped, and the external carotid artery was ligated and cut. The proximal end of the common carotid artery was clamped. An incision was made at the distal end from the ligature of the external carotid artery, and was inserted with a suture line, which was passed through the bifurcation of the common carotid artery into the internal carotid artery, and then was inserted slowly until reaching slight resistance (approximately 20 mm from the bifurcation), so as to block all blood supply to the middle cerebral artery. The suture line was slightly fixed below the incision of the external carotid artery with silk thread. The silk thread clamping the proximal end of the common carotid artery was loosened. A gauze soaked in sterile saline was covered on the wound, and the rat was placed on a heat preservation pad to keep warm. 2.0 h after cerebral ischemia on the right side, the suture line was pulled out gently to restore the blood supply for reperfusion. The external carotid artery was ligated with silk thread fixing the suture line. The skin was stitched, and disinfected. The rats were placed in clean feed, and their general condition and respiration were observed until they woke up from anesthesia. The rats were provided with food and water, and commonly reared.
# After the cerebral ischemia model was established, the animals were assigned to each group in a single-blind manner with equal probability. After reperfusion, the animals were immediately administered intravenously with the drugs once. The animals in the model group were administered with an equal volume of normal saline. Neurological deficit symptoms were evaluated 24 hours after cerebral ischemia, the animals were sacrificed, and their brains were taken out, stained, and photographed for determining the area of cerebral infarction.
# Neurological deficit symptoms were evaluated using the modified Bederson 5-point scale. The neurological deficit symptoms of rats after cerebral ischemia were evaluated by a single-blind method. […] After scoring, the scoring results of various markers were submitted to the designer, who unblinded and obtained the scoring of each animal in each experimental group.
# The degree of cerebral infarction was determined by TTC staining. After the evaluation of the symptoms of neurological deficits was completed, the animals were sacrificed with CO2. The brain was taken out by cutting off head. The olfactory bulb, cerebellum and lower brainstem were removed. The blood on the surface of the brain was washed with normal saline, and the residual water on the surface was removed. The brain was placed at −20° C. for 20 min, then taken out, immediately cut to a coronal section vertically downward at the crossing plane of the line of sight, and sliced backward every 2 mm. The brain slices were incubated in 1% TTC staining solution (at 37° C. for 30 min). The normal brain tissue was stained into dark red, and the ischemic brain tissue was stained into pale white.
# primary cortical neurons = assay: NMDA-induced excitatory injury test on primary cortical neurons (Luminescent Cell Viability Assay); type: cell-based, rat
# Protocol: Pregnant SD rats at 18 days of pregnancy were sacrificed by cervical dislocation. The uterus of rats was dissected and the brain of E18 fetal rats was taken out. The cerebral cortex tissue of the fetal rats was separated into ice-cold DMEM. The meninges and blood vessels on the cortical tissue were removed under a dissecting microscope. The cortical tissue was transferred into ice-cold DMEM, cut into pieces (about 1 mm^3), and digested with trypsin at 37° C. for 10 min. The digestion was stopped with FBS. The obtained cells were blown gently with a Pasteur pipette and passed through a 200-mesh sieve. The filtered cell suspension was transferred to a 15 mL centrifuge tube, and centrifuged at 1000 rpm for 5 min. The supernatant was discarded. Then the cell mass at the bottom of the centrifuge tube was blown gently with 37° C.-prewarmed complete medium (Neurobasal+B27+GlutaMax+1% P/S). The cells were counted using a hemocytometer, diluted to 5×10^5 cells/mL with complete medium, and seeded in a 96-well plate coated with PDL (100 μL/well). Half of the cell culture medium was replaced with complete medium the next day. […] After the inducing buffer was discarded, the cells were washed once with a Locke's buffer containing 1 mM MgCl2, and recovered to be incubated for 4 h by replacing with a complete medium (100 μL/well). The viability of the primary neuron cells was determined by Luminescent Cell Viability Assay kit. According to the instruction, reagents were added at 100 μL/well, and shaking was performed for 10 min. […] Calculation formula: relative neuron activity V (%)=(LUM-LUMbackground)/(LUMnormal control group-LUMbackground group)×100%. LUMbackground was the background reading of the Luminescent Cell Viability Assay reagent added to the cell-free complete medium well. […] Fitting of EC50 of compounds: Log[compound concentration] was used as the abscissa and the relative inhibition rate was used as the ordinate. Log(inhibitor) vs. response-variable slope (four parameters) curve was fitted by Prism8 (GraphPad) to obtain the IC50 of the compounds. […] After the inducing buffer was discarded, the cells were washed once with a Locke's buffer containing 1 mM MgCl2, and recovered to be incubated for 4 h by replacing with a complete medium (100 μL/well). […] After the inducing buffer was discarded, the cells were washed once with a Locke's buffer containing 1 mM MgCl2, and recovered to be incubated for 4 h by replacing with a complete medium (100 μL/well). […] After the inducing buffer was discarded, the cells were washed once with a Locke's buffer containing 1 mM MgCl2, and recovered to be incubated for 4 h by replacing with a complete medium (100 μL/well). […] After the inducing buffer was discarded, the cells were washed once with a Locke's buffer containing 1 mM MgCl2, and recovered to be incubated for 4 h by replacing with a complete medium (100 μL/well).
# [2] = biological target: T1, recombinant human GABAAR (α1β2γ2L) (Homo sapiens, UniProt P14867+P18507+P47870); conditions: Xenopus laevis oocytes, cited from earlier work
# T1 construct: host or cells: Xenopus laevis oocytes
# T1 sequence (P14867 28-456): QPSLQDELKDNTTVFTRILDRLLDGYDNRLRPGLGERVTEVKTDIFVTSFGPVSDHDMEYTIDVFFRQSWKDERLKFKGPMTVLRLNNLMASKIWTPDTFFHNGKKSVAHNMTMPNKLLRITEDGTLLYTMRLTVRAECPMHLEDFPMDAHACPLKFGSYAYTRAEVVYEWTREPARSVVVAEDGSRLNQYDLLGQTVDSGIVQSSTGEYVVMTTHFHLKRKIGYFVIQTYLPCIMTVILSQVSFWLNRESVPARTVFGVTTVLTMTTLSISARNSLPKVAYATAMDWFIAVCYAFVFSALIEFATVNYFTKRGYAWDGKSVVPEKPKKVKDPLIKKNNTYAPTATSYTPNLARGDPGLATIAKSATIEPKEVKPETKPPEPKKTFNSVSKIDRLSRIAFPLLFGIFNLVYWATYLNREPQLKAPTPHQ
# T1 sequence (P47870 25-512 limits assumed): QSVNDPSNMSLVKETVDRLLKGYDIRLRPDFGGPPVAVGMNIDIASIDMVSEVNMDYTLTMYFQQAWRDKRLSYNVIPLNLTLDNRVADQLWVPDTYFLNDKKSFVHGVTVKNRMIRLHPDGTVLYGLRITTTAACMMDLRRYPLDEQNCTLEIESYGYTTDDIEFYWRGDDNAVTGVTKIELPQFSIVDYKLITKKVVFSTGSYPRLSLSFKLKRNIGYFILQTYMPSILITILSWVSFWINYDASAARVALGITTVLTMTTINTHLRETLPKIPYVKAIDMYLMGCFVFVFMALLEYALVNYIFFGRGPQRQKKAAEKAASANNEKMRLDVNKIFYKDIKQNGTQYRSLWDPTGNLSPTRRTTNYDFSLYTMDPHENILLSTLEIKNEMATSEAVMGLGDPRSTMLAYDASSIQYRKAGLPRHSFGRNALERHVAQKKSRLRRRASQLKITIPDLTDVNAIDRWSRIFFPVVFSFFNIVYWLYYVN
# T1 sequence (P18507 40-475): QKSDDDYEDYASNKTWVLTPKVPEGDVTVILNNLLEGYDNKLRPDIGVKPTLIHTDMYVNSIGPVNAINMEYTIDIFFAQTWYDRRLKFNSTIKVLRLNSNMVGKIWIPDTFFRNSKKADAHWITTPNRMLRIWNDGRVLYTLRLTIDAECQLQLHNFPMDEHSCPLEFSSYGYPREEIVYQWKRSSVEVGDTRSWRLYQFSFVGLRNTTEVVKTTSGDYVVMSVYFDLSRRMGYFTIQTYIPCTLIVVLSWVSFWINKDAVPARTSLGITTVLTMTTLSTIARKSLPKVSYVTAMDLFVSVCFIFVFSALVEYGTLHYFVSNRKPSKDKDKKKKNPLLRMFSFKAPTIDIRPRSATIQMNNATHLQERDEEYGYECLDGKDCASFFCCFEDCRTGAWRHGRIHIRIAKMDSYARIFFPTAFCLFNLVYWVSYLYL
smiles,measurement,setting,value
"Nc1nc2ccc(OC(F)(F)F)cc2s1 [Riluzole, 2-Amino-6-trifluoromethoxybenzothiazole]",pIC50,kainic acid receptors,3.78
same,pIC50,[1],4.74
same,neurological deficit score vs MCAO model group,"MCAO rats; 8 mg/kg i.v. once after reperfusion, 24 hours",significantly reduced
CC1(C)[C@@H]2CC[C@@]1(C)[C@@H](O)C2 [(+)-2-Borneol],viability of neurons with excitatory injury,"primary cortical neurons; Example 1, 0.41-3.7 μM",concentration-dependently increased
same,viability of neurons with excitatory injury,"primary cortical neurons; Example 1, 10-100 μM",tended to decrease
same,viability of neurons with NMDA-induced excitatory injury,"primary cortical neurons; Example 2, alone at 3.7 μM",significantly improve
same,"Fa, protecting neurons from excitatory injury","primary cortical neurons; Example 3, (+)-2-borneol 0.5 μM",0.014
same,"Fa, protecting neurons from excitatory injury","primary cortical neurons; Example 3, (+)-2-borneol 1 μM",0.022
same,"Fa, protecting neurons from excitatory injury","primary cortical neurons; Example 3, (+)-2-borneol 2 μM",0.152
same,"Fa, protecting neurons from excitatory injury","primary cortical neurons; Example 3, (+)-2-borneol 4 μM",0.22
same,"Fa, protecting neurons from excitatory injury","primary cortical neurons; Example 3, (+)-2-borneol 8 μM",0.231
same,viability of neurons with injury induced by NMDA,"primary cortical neurons; Example 3, riluzole 10-160 μM, (+)-2-borneol 0.5-8 μM, compositions 20:1",concentration-dependently increase
same,"Fa, protecting neurons from excitatory injury","primary cortical neurons; Example 4, (+)-2-borneol 0.5 μM",0.042
same,"Fa, protecting neurons from excitatory injury","primary cortical neurons; Example 4, (+)-2-borneol 1 μM",0.069
same,"Fa, protecting neurons from excitatory injury","primary cortical neurons; Example 4, (+)-2-borneol 2 μM",0.086
same,"Fa, protecting neurons from excitatory injury","primary cortical neurons; Example 4, (+)-2-borneol 4 μM",0.209
same,"Fa, protecting neurons from excitatory injury","primary cortical neurons; Example 4, (+)-2-borneol 8 μM",0.205
same,viability of neurons with injury induced by NMDA,"primary cortical neurons; Example 4, riluzole 2.5-40 μM, (+)-2-borneol 0.5-8 μM, compositions 5:1",concentration-dependently increase
same,"Fa, protecting neurons from excitatory injury","primary cortical neurons; Example 5, (+)-2-borneol 0.5 μM",0.042
same,"Fa, protecting neurons from excitatory injury","primary cortical neurons; Example 5, (+)-2-borneol 1 μM",0.077
same,"Fa, protecting neurons from excitatory injury","primary cortical neurons; Example 5, (+)-2-borneol 2 μM",0.128
same,"Fa, protecting neurons from excitatory injury","primary cortical neurons; Example 5, (+)-2-borneol 4 μM",0.205
same,"Fa, protecting neurons from excitatory injury","primary cortical neurons; Example 5, (+)-2-borneol 8 μM",0.202
same,viability of neurons with injury induced by NMDA / protective effect,"primary cortical neurons; Example 5, riluzole 0.5-8 μM, (+)-2-borneol 0.5-8 μM, compositions 1:1",concentration-dependently increase
same,Emax,"primary cortical neurons; Rattus norvegicus, Primary cortical neuron, Example 1, concentration-inhibition rate curve, read-out: Emax (relative inhibition rate)",15%
same,pEC50,"[2]; low concentration of GABA, read-out: EC50, enhancement of GABAAR function",3.61
same,enhancement of function of GABAAR induced by low concentration of GABA,[2],more than 10 times
same,neurological deficit score vs MCAO model group,"MCAO rats; 1 mg/kg i.v. once after reperfusion, 24 hours",significantly reduced
same,cerebral infarction area vs MCAO model group,"MCAO rats; 0.5 and 1 mg/kg i.v. once after reperfusion, 24 hours","dose-dependently, significantly reduced"
same,"Fa, reducing the area of cerebral infarction in MCAO rats",MCAO rats; (+)-2-borneol 0.5 mg/kg,0.157
same,"Fa, reducing the area of cerebral infarction in MCAO rats",MCAO rats; (+)-2-borneol 1 mg/kg,0.256
same,"neurological deficit score of MCAO rats, dose dependence","MCAO rats; i.v. once after reperfusion, evaluated 24 hours after cerebral ischemia",dose-dependently reduce
